{"source": "patent US20220249441A1", "about": "“Homodimeric Tobramycin Adjuvant Repurposes Novobiocin as an Effective Antibacterial Agent Against Gram-Negative Bacteria” (priority 2019, published 2022)", "key": {"[1]": {"tested_on": "P. aeruginosa", "test": "Checkerboard assay (antibiotic + adjuvant combination MIC)", "assay_type": "cell-based, Pseudomonas aeruginosa", "conditions": "compound at 8 μM", "protocol": "Antimicrobial Susceptibility Assay. The in vitro antimicrobial activity of all compounds/antibiotics against a panel of bacteria was evaluated by microbroth dilution method in accordance with the Clinical and Laboratory Standards Institute (CLSI) guidelines (using ATCC strains as quality control strains) (54). Overnight grown bacterial cultures were diluted in saline to achieve a 0.5 McFarland turbidity, followed by 1:50 dilution in Mueller-Hinton broth (MHB) for inoculation to a final concentration of approximately 5×10^5 CFU/mL. […] The lowest concentration that prevented the visible growth of bacteria was defined as the MIC for each antimicrobial agent. The broth with or without bacterial cells was used as positive or negative control, respectively.\nCheckerboard Assay. Combination studies with different antibiotics were performed in 96-well plates as previously described (19). Briefly, the antibiotic of interest was serially diluted in MHB along the abscissa while the adjuvant (tobramycin homodimer) was serially diluted in MHB along the ordinate. This creates a 10×7 matrices wherein each well consists of a combination of different antibiotic and adjuvant concentrations. Overnight grown bacterial cultures were diluted in saline to achieve a 0.5 McFarland turbidity, followed by 1:50 dilution in Mueller-Hinton broth (MHB) for inoculation to a final concentration of approximately 5×10^5 CFU/mL. […] MIC was recorded as wells with the lowest concentration of drugs with no bacterial growth. The fractional inhibitory concentration (FIC) for each antibiotic was calculated by dividing the MIC of the antibiotic in the presence of adjuvant by the MIC of the antibiotic alone. Similarly, the FIC of adjuvant was calculated by dividing the MIC of the adjuvant in the presence of antibiotic by the MIC of the adjuvant alone. FIC index is the sum of both FICs. FIC indices of ≤0.5 were deemed synergistic; >0.5-4, no interaction; and >4, antagonistic."}, "[2]": {"tested_on": "P. aeruginosa PAO1 and efflux deficient mutants, MDR/XDR isolates", "test": "microbe, parasite or virus in culture", "assay_type": "cell-based, Pseudomonas aeruginosa", "protocol": "Antimicrobial Susceptibility Assay. The in vitro antimicrobial activity of all compounds/antibiotics against a panel of bacteria was evaluated by microbroth dilution method in accordance with the Clinical and Laboratory Standards Institute (CLSI) guidelines (using ATCC strains as quality control strains) (54). […] The broth with or without bacterial cells was used as positive or negative control, respectively."}}, "data": [{"smiles": "NC[C@H]1O[C@H](O[C@H]2[C@H](OCCCCc3cn(CCCCO[C@@H]4[C@@H](O[C@H]5O[C@H](CO)[C@@H](O)[C@H](N)[C@H]5O)[C@H](N)C[C@H](N)[C@H]4O[C@H]4O[C@H](CN)[C@@H](O)C[C@H]4N)nn3)[C@@H](O[C@H]3O[C@H](CO)[C@@H](O)[C@H](N)[C@H]3O)[C@H](N)C[C@@H]2N)[C@H](N)C[C@@H]1O.O=C(O)C(F)(F)F.O=C(O)C(F)(F)F.O=C(O)C(F)(F)F.O=C(O)C(F)(F)F.O=C(O)C(F)(F)F.O=C(O)C(F)(F)F.O=C(O)C(F)(F)F.O=C(O)C(F)(F)F.O=C(O)C(F)(F)F.O=C(O)C(F)(F)F", "note": "[Compound 23, Tobramycin homodimer]", "values": [{"measurement": "MIC of Aztreonam + compound", "setting": "[1]; P. aeruginosa PAO1", "result": 0.25, "unit": "µg/mL"}, {"measurement": "MIC of Ceftazidime + compound", "setting": "[1]; P. aeruginosa PAO1", "result": 0.25, "unit": "µg/mL"}, {"measurement": "MIC of Imipenem + compound", "setting": "[1]; P. aeruginosa PAO1", "result": 1, "unit": "µg/mL"}, {"measurement": "MIC of Piperacillin + compound", "setting": "[1]; P. aeruginosa PAO1", "result": 0.5, "unit": "µg/mL"}, {"measurement": "MIC of ATM in the presence of compound", "setting": "[1]; PA 259-96918", "result": 8, "unit": "µg/mL"}, {"measurement": "MIC of CAZ in the presence of compound", "setting": "[1]; PA 259-96918", "result": 128, "unit": "µg/mL"}, {"measurement": "MIC of IPM in the presence of compound", "setting": "[1]; PA 259-96918", "result": 32, "unit": "µg/mL"}, {"measurement": "MIC of ATM in the presence of compound", "setting": "[1]; PA 260-97103", "result": 16, "unit": "µg/mL"}, {"measurement": "MIC of CAZ in the presence of compound", "setting": "[1]; PA 260-97103", "result": 8, "unit": "µg/mL"}, {"measurement": "MIC of IPM in the presence of compound", "setting": "[1]; PA 260-97103", "result": 16, "unit": "µg/mL"}, {"measurement": "MIC of ATM in the presence of compound", "setting": "[1]; PA 262-101856", "result": 8, "unit": "µg/mL"}, {"measurement": "MIC of CAZ in the presence of compound", "setting": "[1]; PA 262-101856", "result": 2, "unit": "µg/mL"}, {"measurement": "MIC of IPM in the presence of compound", "setting": "[1]; PA 262-101856", "result": 2, "unit": "µg/mL"}, {"measurement": "MIC of ATM in the presence of compound", "setting": "[1]; PA 264-104354", "result": 8, "unit": "µg/mL"}, {"measurement": "MIC of CAZ in the presence of compound", "setting": "[1]; PA 264-104354", "result": 32, "unit": "µg/mL"}, {"measurement": "MIC of IPM in the presence of compound", "setting": "[1]; PA 264-104354", "result": 4, "unit": "µg/mL"}, {"measurement": "MIC of ATM in the presence of compound", "setting": "[1]; PA 86052", "result": 8, "unit": "µg/mL"}, {"measurement": "MIC of CAZ in the presence of compound", "setting": "[1]; PA 86052", "result": 64, "unit": "µg/mL"}, {"measurement": "MIC of IPM in the presence of compound", "setting": "[1]; PA 86052", "result": 16, "unit": "µg/mL"}, {"measurement": "MIC of ATM in the presence of compound", "setting": "[1]; PA 88949", "result": 32, "unit": "µg/mL"}, {"measurement": "MIC of CAZ in the presence of compound", "setting": "[1]; PA 88949", "result": 16, "unit": "µg/mL"}, {"measurement": "MIC of IPM in the presence of compound", "setting": "[1]; PA 88949", "result": 4, "unit": "µg/mL"}, {"measurement": "MIC of ATM in the presence of compound", "setting": "[1]; PA 91433", "result": 4, "unit": "µg/mL"}, {"measurement": "MIC of CAZ in the presence of compound", "setting": "[1]; PA 91433", "result": 1, "unit": "µg/mL"}, {"measurement": "MIC of IPM in the presence of compound", "setting": "[1]; PA 91433", "result": 4, "unit": "µg/mL"}, {"measurement": "MIC of ATM in the presence of compound", "setting": "[1]; PA 100036", "result": 2, "unit": "µg/mL"}, {"measurement": "MIC of CAZ in the presence of compound", "setting": "[1]; PA 100036", "result": 2, "unit": "µg/mL"}, {"measurement": "MIC of IPM in the presence of compound", "setting": "[1]; PA 100036", "result": 4, "unit": "µg/mL"}, {"measurement": "MIC of ATM in the presence of compound", "setting": "[1]; PA 101243", "result": 16, "unit": "µg/mL"}, {"measurement": "MIC of CAZ in the presence of compound", "setting": "[1]; PA 101243", "result": 64, "unit": "µg/mL"}, {"measurement": "MIC of IPM in the presence of compound", "setting": "[1]; PA 101243", "result": 8, "unit": "µg/mL"}, {"measurement": "MIC of ATM in the presence of compound", "setting": "[1]; PA 101885", "result": 4, "unit": "µg/mL"}, {"measurement": "MIC of CAZ in the presence of compound", "setting": "[1]; PA 101885", "result": 2, "unit": "µg/mL"}, {"measurement": "MIC of IPM in the presence of compound", "setting": "[1]; PA 101885", "result": 4, "unit": "µg/mL"}, {"measurement": "MIC of ATM in the presence of compound", "setting": "[1]; PA 107092", "result": 16, "unit": "µg/mL"}, {"measurement": "MIC of CAZ in the presence of compound", "setting": "[1]; PA 107092", "result": 32, "unit": "µg/mL"}, {"measurement": "MIC of IPM in the presence of compound", "setting": "[1]; PA 107092", "result": 16, "unit": "µg/mL"}, {"measurement": "MIC of ATM in the presence of compound", "setting": "[1]; PA 108590", "result": 8, "unit": "µg/mL"}, {"measurement": "MIC of CAZ in the presence of compound", "setting": "[1]; PA 108590", "result": 8, "unit": "µg/mL"}, {"measurement": "MIC of IPM in the presence of compound", "setting": "[1]; PA 108590", "result": 4, "unit": "µg/mL"}, {"measurement": "MIC of ATM in the presence of compound", "setting": "[1]; PA 109084", "result": 8, "unit": "µg/mL"}, {"measurement": "MIC of CAZ in the presence of compound", "setting": "[1]; PA 109084", "result": 32, "unit": "µg/mL"}, {"measurement": "MIC of IPM in the presence of compound", "setting": "[1]; PA 109084", "result": 8, "unit": "µg/mL"}, {"measurement": "MIC of ATM in the presence of compound", "setting": "[1]; PA 114228", "result": 4, "unit": "µg/mL"}, {"measurement": "MIC of CAZ in the presence of compound", "setting": "[1]; PA 114228", "result": 1, "unit": "µg/mL"}, {"measurement": "MIC of IPM in the presence of compound", "setting": "[1]; PA 114228", "result": 0.5, "unit": "µg/mL"}, {"measurement": "MIC of ATM in the presence of compound", "setting": "[1]; PA O200 (efflux-deficient)", "result": 0.03, "unit": "µg/mL"}, {"measurement": "MIC of CAZ in the presence of compound", "setting": "[1]; PA O200 (efflux-deficient)", "result": 0.13, "unit": "µg/mL"}, {"measurement": "MIC of IPM in the presence of compound", "setting": "[1]; PA O200 (efflux-deficient)", "result": 1, "unit": "µg/mL"}, {"measurement": "MIC of ATM in the presence of compound", "setting": "[1]; PA O750 (efflux-deficient)", "result": 0.06, "unit": "µg/mL"}, {"measurement": "MIC of CAZ in the presence of compound", "setting": "[1]; PA O750 (efflux-deficient)", "result": 0.06, "unit": "µg/mL"}, {"measurement": "MIC of IPM in the presence of compound", "setting": "[1]; PA O750 (efflux-deficient)", "result": 1, "unit": "µg/mL"}, {"measurement": "MIC of ATM in the presence of compound", "setting": "[1]; PAO1", "result": 0.25, "unit": "µg/mL"}, {"measurement": "MIC of CAZ in the presence of compound", "setting": "[1]; PAO1", "result": 0.25, "unit": "µg/mL"}, {"measurement": "MIC of IPM in the presence of compound", "setting": "[1]; PAO1", "result": 1, "unit": "µg/mL"}, {"measurement": "resistant isolates in which CLSI breakpoint was attained for aztreonam", "setting": "[1]", "result": "eleven out of thirteen"}, {"measurement": "resistant isolates in which CLSI breakpoint was attained for ceftazidime", "setting": "[1]", "result": "four out of eleven"}, {"measurement": "resistant isolates in which CLSI breakpoint was attained for imipenem", "setting": "[1]", "result": "five out of seventeen"}, {"measurement": "MIC", "setting": "[2]; PAO1 (wild-type)", "result": ">128", "unit": "µg/mL"}, {"measurement": "MIC", "setting": "[2]; PAO200 (first column so headed)", "result": ">128", "unit": "µg/mL"}, {"measurement": "MIC", "setting": "[2]; PAO200 (second column so headed)", "result": ">128", "unit": "µg/mL"}]}]}
